Assay: isoelectric point (pI) of the GLP-1 analogue
Format: physicochemical
Conditions: isoelectric point of the peptide, stated in the description

pI: about 5.4
Substance: Arg^34GLP-1(7-37)
